According to patent publication US12187702B2, “Sulfonamideurea compounds” (Inflazome Limited, priority 2018, dated 2025):
Structures can show the parent of a compound that is named as a salt.

Columns and labels:
NLRP3 [1] = biological target: T1, NLRP3 (Homo sapiens, UniProt Q96P20); assay: THP-1 cells pyroptosis assay (LPS + nigericin, resazurin read-out); format: cell-based; set-up: Seed THP-1 cells (25,000 cells/well) containing 1.0 μg/ml LPS; host or cells: THP-1 cells; details: THP-1 cells, 1 μg/ml LPS, 5 μM nigericin; NLRP3 inhibitory activity; read-out: THP IC50
Protocol: THP-1 cells (ATCC #TIB-202) were grown in RPMI containing L-glutamine (Gibco #11835) supplemented with 1 mM sodium pyruvate (Sigma #S8636) and penicillin (100 units/ml)/streptomycin (0.1 mg/ml) (Sigma #P4333) in 10% Fetal Bovine Serum (FBS) (Sigma #F0804). The cells were routinely passaged and grown to confluency (˜10^6 cells/ml). On the day of the experiment, THP-1 cells were harvested and resuspended into RPMI medium (without FBS). The cells were then counted and viability (>90%) checked by Trypan blue (Sigma #T8154). Appropriate dilutions were made to give a concentration of 625,000 cells/ml. To this diluted cell solution was added LPS (Sigma #L4524) to give a 1 μg/ml Final Assay Concentration (FAC). 40 μl of the final preparation was aliquoted into each well of a 96-well plate. The plate thus prepared was used for compound screening.
The following method step-by-step assay was followed for compound screening. • 1. Seed THP-1 cells (25,000 cells/well) containing 1.0 μg/ml LPS in 40 μl of RPMI medium (without FBS) in 96-well, black walled, clear bottom cell culture plates coated with poly-D-lysine (VWR #734-0317) • 2. Add 5 μl compound (8 points half-log dilution, with 10 μM top dose) or vehicle (DMSO 0.1% FAC) to the appropriate wells • 3. Incubate for 3 hrs at 37° C., 5% CO2 • 4. Add 5 μl nigericin (Sigma #N7143) (FAC 5 μM) to all wells • 5. Incubate for 1 hr at 37° C., 5% CO2 • 6. At the end of the incubation period, spin plates at 300×g for 3 mins and remove supernatant • 7. Then add 50 μl of resazurin (Sigma #R7017) (FAC 100 μM resazurin in RPMI medium without FBS) and incubate plates for a further 1-2 hrs at 37° C. and 5% CO2 • 8. Plates were read in an Envision reader at Ex 560 nm and Em 590 nm • 9. IC50 data is fitted to a non-linear regression equation (log inhibitor vs response-variable slope 4-parameters)

NLRP3 [2] = biological target: T1, NLRP3; assay: Human whole blood IL-1β release assay (LPS + nigericin, AlphaLisa); format: cell-based; set-up: Plate out 80 μl of whole blood containing 1 μg/ml of LPS; from tissue; host or cells: human whole blood from healthy donors; details: human whole blood, 1 μg/ml LPS, 10 μM nigericin; IL-1β release; read-out: HWB IC50
Protocol: For systemic delivery, the ability to inhibit NLRP3 when the compounds are present within the bloodstream is of great importance. For this reason, the NLRP3 inhibitory activity of a number of compounds in human whole blood was investigated in accordance with the following protocol.
Human whole blood in Li-heparin tubes was obtained from healthy donors from a volunteer donor panel. • 1. Plate out 80 μl of whole blood containing 1 μg/ml of LPS in 96-well, clear bottom cell culture plate (Corning #3585) • 2. Add 10 μl compound (8 points half-log dilution with 10 μM top dose) or vehicle (DMSO 0.1% FAC) to the appropriate wells • 3. Incubate for 3 hrs at 37° C., 5% CO2 • 4. Add 10 μl nigericin (Sigma #N7143) (10 μM FAC) to all wells • 5. Incubate for 1 hr at 37° C., 5% CO2 • 6. At the end of the incubation period, spin plates at 300×g for 5 mins to pellet cells and remove 20 μl of supernatant and add to 96-well v-bottom plates for IL-1β analysis (note: these plates containing the supernatants can be stored at −80° C. to be analysed at a later date) • 7. IL-1β was measured according to the manufacturer protocol (Perkin Elmer-AlphaLisa IL-1 Kit AL220F-5000) • 8. IC50 data is fitted to a non-linear regression equation (log inhibitor vs response-variable slope 4-parameters)

T1 sequence (Q96P20 whole entry): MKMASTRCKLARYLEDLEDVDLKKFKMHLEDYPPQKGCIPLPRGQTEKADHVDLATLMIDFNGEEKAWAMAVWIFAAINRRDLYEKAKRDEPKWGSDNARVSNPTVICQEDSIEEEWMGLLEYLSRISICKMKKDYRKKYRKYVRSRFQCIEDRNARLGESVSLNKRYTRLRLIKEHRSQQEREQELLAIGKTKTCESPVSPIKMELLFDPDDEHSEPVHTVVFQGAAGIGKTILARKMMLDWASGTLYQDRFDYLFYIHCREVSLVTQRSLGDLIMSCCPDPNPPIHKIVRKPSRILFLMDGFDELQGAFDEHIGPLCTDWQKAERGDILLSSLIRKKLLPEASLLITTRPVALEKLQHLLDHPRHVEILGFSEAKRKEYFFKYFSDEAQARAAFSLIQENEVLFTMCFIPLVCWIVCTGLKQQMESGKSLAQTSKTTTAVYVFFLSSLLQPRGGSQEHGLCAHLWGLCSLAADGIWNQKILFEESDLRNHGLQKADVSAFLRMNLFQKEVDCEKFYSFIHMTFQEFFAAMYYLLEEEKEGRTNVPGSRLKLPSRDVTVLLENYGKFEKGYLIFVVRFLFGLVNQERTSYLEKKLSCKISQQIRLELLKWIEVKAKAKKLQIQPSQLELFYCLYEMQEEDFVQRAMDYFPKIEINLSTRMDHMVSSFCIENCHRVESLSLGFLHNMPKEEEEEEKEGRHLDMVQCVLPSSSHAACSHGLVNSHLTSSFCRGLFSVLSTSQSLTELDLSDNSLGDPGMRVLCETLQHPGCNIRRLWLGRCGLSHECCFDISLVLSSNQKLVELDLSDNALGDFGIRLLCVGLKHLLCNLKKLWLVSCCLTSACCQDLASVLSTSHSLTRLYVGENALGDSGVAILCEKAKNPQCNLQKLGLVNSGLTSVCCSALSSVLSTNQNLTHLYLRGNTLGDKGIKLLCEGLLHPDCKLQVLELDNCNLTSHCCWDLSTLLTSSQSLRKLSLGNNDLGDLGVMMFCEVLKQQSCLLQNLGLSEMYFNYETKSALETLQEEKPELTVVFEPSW

IC50 (NLRP3 [1]) [nM] | IC50 (NLRP3 [2]) [nM] | SMILES
< 500 | < 5000 | CC(C)N1CC2CN(S(=O)(=O)NC(=O)Nc3c4c(cc5c3CCC5)CCC4)CC21 (stereo not drawn) [Example 87, N-((1,2,3,5,6,7-Hexahydro-s-indacen-4-yl)carbamoyl)-6-isopropyl-3,6-diazabicyclo[3.2.0]heptane-3-sulfonamide, potassium salt]
< 500 | < 1000 | CC(C)(C)NCCNS(=O)(=O)NC(=O)Nc1c2c(cc3c1CCC3)CCC2 [Example 71, 3-(N-(2-(tert-Butylamino)ethyl)sulfamoyl)-1-(1,2,3,5,6,7-hexahydro-s-indacen-4-yl)urea, potassium salt]
< 500 | < 500 | CCN1C2CCC1CN(S(=O)(=O)NC(=O)Nc1c3c(cc4c1CCC4)CCC3)C2 [Example 61, 8-Ethyl-N-((1,2,3,5,6,7-hexahydro-s-indacen-4-yl)carbamoyl)-3,8-diazabicyclo[3.2.1]octane-3-sulfonamide, potassium salt]
< 500 | < 500 | CN1C2CCC1CN(S(=O)(=O)NC(=O)Nc1c3c(cc4c1CCC4)CCC3)C2 [Example 14, N-((1,2,3,5,6,7-Hexahydro-s-indacen-4-yl)carbamoyl)-8-methyl-3,8-diazabicyclo[3.2.1]octane-3-sulfonamide, potassium salt]
< 500 | < 1000 | CN1CC(CN(C)S(=O)(=O)NC(=O)Nc2c3c(cc4c2CCC4)CCC3)C1 [Example 84, 3-(N-Methyl-N-((1-methylazetidin-3-yl)methyl)sulfamoyl)-1-(1,2,3,5,6,7-hexahydro-s-indacen-4-yl)urea, potassium salt]
< 500 | < 1000 | CN1CC2CN(S(=O)(=O)NC(=O)Nc3c4c(cc5c3CCC5)CCC4)C2C1 (stereo not drawn) [Example 94, N-((1,2,3,5,6,7-Hexahydro-s-indacen-4-yl)carbamoyl)-3-methyl-3,6-diazabicyclo[3.2.0]heptane-6-sulfonamide, potassium salt]
< 1000 | < 1000 | CCN1CCC1CNS(=O)(=O)NC(=O)Nc1c2c(cc3c1CCC3)CCC2 (stereo not drawn) [Example 47, 3-(N-((1-Ethylazetidin-2-yl)methyl)sulfamoyl)-1-(1,2,3,5,6,7-hexahydro-s-indacen-4-yl)urea, potassium salt]
< 500 | < 500 | O=C(Nc1c2c(cc3c1CCC3)CCC2)NS(=O)(=O)N1CCC(N2CCCC2)C1 (stereo not drawn) [Example 72, N-((1,2,3,5,6,7-Hexahydro-s-indacen-4-yl)carbamoyl)-[1,3′-bipyrrolidine]-1′-sulfonamide, potassium salt]
< 500 | < 500 | CC(C)N1CCC1CNS(=O)(=O)NC(=O)Nc1c2c(cc3c1CCC3)CCC2 (stereo not drawn) [Example 50, 3-(N-((1-Isopropylazetidin-2-yl)methyl)sulfamoyl)-1-(1,2,3,5,6,7-hexahydro-s-indacen-4-yl)urea, potassium salt]
< 1000 | < 5000 | CC(C)N(CCN(C)C)S(=O)(=O)NC(=O)Nc1c2c(cc3c1CCC3)CCC2 [Example 83, 3-(N-(2-(Dimethylamino)ethyl)-N-isopropylsulfamoyl)-1-(1,2,3,5,6,7-hexahydro-s-indacen-4-yl)urea, potassium salt]
< 500 | < 500 | CN1C[C@H]2C[C@@H]1CN2S(=O)(=O)NC(=O)Nc1c2c(cc3c1CCC3)CCC2 [Example 43, (1R,4R)—N-((1,2,3,5,6,7-Hexahydro-s-indacen-4-yl)carbamoyl)-5-methyl-2,5-diazabicyclo[2.2.1]heptane-2-sulfonamide, potassium salt]
< 500 | < 500 | CN1CCC[C@@H]1CN(C)S(=O)(=O)NC(=O)Nc1c2c(cc3c1CCC3)CCC2 [Example 95, 3-((R)—N-Methyl-N-((1-methylpyrrolidin-2-yl)methyl)sulfamoyl)-1-(1,2,3,5,6,7-hexahydro-s-indacen-4-yl)urea, potassium salt]
< 10000 | – | CN(C)CCN(CCN(C)C)S(=O)(=O)NC(=O)Nc1c2c(cc3c1CCC3)CCC2 [Example 51, 3-(N,N-Bis(2-(dimethylamino)ethyl)sulfamoyl)-1-(1,2,3,5,6,7-hexahydro-s-indacen-4-yl)urea, potassium salt]
< 5000 | – | CC(=O)N(C)CCN(C)S(=O)(=O)NC(=O)Nc1c2c(cc3c1CCC3)CCC2 [Example 41, N-(2-((N-((1,2,3,5,6,7-Hexahydro-s-indacen-4-yl)carbamoyl)sulfamoyl)(methyl)amino)ethyl)-N-methylacetamide, potassium salt]
< 1000 | – | O=C(Nc1c2c(cc3c1CCC3)CCC2)NS(=O)(=O)N1CCN2CCC1C2 (stereo not drawn) [Example 60, potassium salt]
< 1000 | – | CN1C[C@@H]2C[C@H]1CN2S(=O)(=O)NC(=O)Nc1c2c(cc3c1CCC3)CCC2 [Example 67, (1S,4S)—N-((1,2,3,5,6,7-Hexahydro-s-indacen-4-yl)carbamoyl)-5-methyl-2,5-diazabicyclo[2.2.1]heptane-2-sulfonamide, potassium salt]
< 5000 | – | CCN1CCN(S(=O)(=O)NC(=O)Nc2c3c(cc4c2CCC4)CCC3)CC1 [Example 21, 4-Ethyl-N-((1,2,3,5,6,7-hexahydro-s-indacen-4-yl)carbamoyl) piperazine-1-sulfonamide]
< 5000 | – | CN1CC2CN(S(=O)(=O)NC(=O)Nc3c4c(cc5c3CCC5)CCC4)CC2C1 (stereo not drawn) [Example 99, N-((1,2,3,5,6,7-Hexahydro-s-indacen-4-yl)carbamoyl)-5-methylhexahydropyrrolo[3,4-c]pyrrole-2(1H)-sulfonamide]
< 500 | – | CN1CCCCC1CN(C)S(=O)(=O)NC(=O)Nc1c2c(cc3c1CCC3)CCC2 (stereo not drawn) [Example 22, 3-(N-methyl-N-((1-methylpiperidin-2-yl)methyl)sulfamoyl)-1-(1,2,3,5,6,7-hexahydro-s-indacen-4-yl)urea, potassium salt]
< 5000 | – | O=C(Nc1c2c(cc3c1CCC3)CCC2)NS(=O)(=O)N1CC(N2CCCC2)C1 [Example 23, potassium salt]
< 1000 | – | CCN1CCCC(NS(=O)(=O)NC(=O)Nc2c3c(cc4c2CCC4)CCC3)C1 (stereo not drawn) [Example 19, 3-(N-(1-Ethylpiperidin-3-yl)sulfamoyl)-1-(1,2,3,5,6,7-hexahydro-s-indacen-4-yl)urea, potassium salt]

SMILES | IC50 (NLRP3 [1]) [nM] | IC50 (NLRP3 [2]) [nM]
CN(C)[C@H]1C[C@H]2CC[C@@H](C1)N2S(=O)(=O)NC(=O)Nc1c2c(cc3c1CCC3)CCC2 [Example 79, (1R,3r,5S)-3-(Dimethylamino)-N-((1,2,3,5,6,7-hexahydro-s-indacen-4-yl)carbamoyl)-8-azabicyclo[3.2.1]octane-8-sulfonamide] | – | < 500
CN1C2CC1CN(S(=O)(=O)NC(=O)Nc1c3c(cc4c1CCC4)CCC3)C2 [Example 100, N-((1,2,3,5,6,7-Hexahydro-s-indacen-4-yl)carbamoyl)-6-methyl-3,6-diazabicyclo[3.1.1]heptane-3-sulfonamide] | < 500 | –
CN(C)[C@@H]1C[C@H]2CC[C@@H](C1)N2S(=O)(=O)NC(=O)Nc1c2c(cc3c1CCC3)CCC2 [Example 77, (1R,3s,5S)-3-(Dimethylamino)-N-((1,2,3,5,6,7-hexahydro-s-indacen-4-yl)carbamoyl)-8-azabicyclo[3.2.1]octane-8-sulfonamide] | < 10000 | –
